Consider 15 compounds from patent publication US20260083708A1, “IL-17 MODULATORS AND USES THEREOF” (NNOCARE PHARMA INC., priority 2024, published 2026).

One assay has as its target T1, IL-17AA and IL-17RA (Homo sapiens, UniProt Q16552).
T1 construct: purchased Sino Biological 12047-H07B (IL-17AA); 10895-H02H (IL-17RA)
T1 sequence (Q16552 24-155): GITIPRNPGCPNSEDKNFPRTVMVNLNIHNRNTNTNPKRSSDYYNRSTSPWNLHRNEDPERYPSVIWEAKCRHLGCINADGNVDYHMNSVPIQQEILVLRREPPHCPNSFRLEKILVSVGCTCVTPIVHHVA
As to the kind of experiment: Competitive inhibition of human IL-17AA and IL-17RA binding (HTRF). Particulars: recombinant IL-17AA (His-tag) and IL-17RA (hFc-tag); read-out: IC50 for Inhibiting IL-AA/IL-RA Binding. An outline of the steps: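 His-IL-17AA (1 nM) premixed 1 h with anti-His-Tb (0.4 nM), and Fc-IL-17RA (1 nM) with anti-IgG-d2 (1 μg/mL); these are pre-mix levels. Compounds, diluted from 10 μM, preincubated 2 h RT with IL-17AA mix; IL-17RA mix then added, 20 min. 665/615 ratio vs no-compound and no-IL-17AA controls; IC50 by 4-parameter fit.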
(TR-FRET usually uses a lanthanide donor and a delayed reading to cut background.)

For assay [1], the system named is IL-17AF-induced IL-17 signaling pathway. Briefly: Inhibition of IL-17AF-induced IL-17 signaling pathway. As to conditions: Homo sapiens; IL-17AF used instead of IL-17AA; read-out: IC50 for Inhibiting IL-AF Signaling. The assay is classed as cell-based. An outline of the steps:
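HEK293-derived HEK-Blue IL-17 cells (IL-17RA/RC, ACT1, NF-κB/AP-1-driven SEAP) preincubated 1 hour at 37° C with serially diluted compound from 10 μM, then stimulated with IL-17AF for 20 hours. SEAP read colorimetrically at 620 nm; IC50 from 4-parameter fit of % inhibition.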

Assay [2] has as its system IL-17AA-induced IL-17 signaling pathway. As to the kind of experiment: Inhibition of IL-17AA-induced IL-17 signaling pathway in HEK-Blue IL-17 reporter cells (SEAP). It counts as cell-based. Particulars: Homo sapiens; HEK-Blue IL-17 cells, IL-17AA 2.5 ng/mL, 20 hours; read-out: IC50 for Inhibiting IL-AA Signaling. Summed up:
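HEK-Blue IL-17 cells (HEK293 expressing human IL-17RA/RC, ACT1 and NF-κB/AP-1-driven SEAP), 10,000/well, pre-incubated with compound (serial dilution from 10 μM) for 1 h at 37 °C, then stimulated with IL-17AA at 2.5 ng/mL final for 20 h. SEAP in supernatant read with Quanti-Blue at 620 nm; IC50 by 4-parameter fit.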

With `COCC(=O)N[C@@H](c1ncnn1CC1CC1)[C@@H](C)c1ccc(NC(=O)[C@@H](NC(=O)c2ccnn2C(C)C)C(C2CC2)C2CC2)c(F)c1` [Compound 33, N-((S)-1,1-dicyclopropyl-3-((4-((1R,2S)-1-(1-(cyclopropylmethyl)-1H-1,2,4-triazol-5-yl)-1-(2-methoxyacetamido)propan-2-yl)-2-fluorophenyl)amino)-3-oxopropan-2-yl)-1-isopropyl-1H-pyrazole-5-carboxamide], the IC50 amounted to 7.9 nM on IL-17AA and IL-17RA; 7.7 nM in assay [1]; 3.1 nM in assay [2].
With `CCc1nonc1C(=O)N[C@H](C(=O)Nc1ccc([C@H](C)[C@@H](NC(=O)COC)c2ncnn2CC2CC2)cc1F)C(C1CC1)C1CC1` [Compound 34, N-((S)-1,1-dicyclopropyl-3-((4-((1R,2S)-1-(1-(cyclopropylmethyl)-1H-1,2,4-triazol-5-yl)-1-(2-methoxyacetamido)propan-2-yl)-2-fluorophenyl)amino)-3-oxopropan-2-yl)-4-ethyl-1,2,5-oxadiazole-3-carboxamide], the IC50 on IL-17AA and IL-17RA was 2.6 nM; in assay [1] it was 3.2 nM; in assay [2] it was 2.2 nM.
Turning to `CCn1nccc1C(=O)N[C@H](C(=O)Nc1ccc([C@H](C)[C@@H](NC(=O)COC)c2ncnn2CC(C)C)cc1F)C(C1CC1)C1CC1` [Compound 36, N-((S)-1,1-dicyclopropyl-3-((2-fluoro-4-((1R,2S)-1-(1-isobutyl-1H-1,2,4-triazol-5-yl)-1-(2-methoxyacetamido)propan-2-yl)phenyl)amino)-3-oxopropan-2-yl)-1-ethyl-1H-pyrazole-5-carboxamide], the IC50 at IL-17AA and IL-17RA came out at 3.7 nM; in assay [1], 2.2 nM; in assay [2], 2 nM.
The like results for `CCn1nccc1C(=O)N[C@H](C(=O)Nc1ccc([C@H](C)[C@H](NC(=O)COC)c2nncn2CC2CC2)cc1F)C(C1CC1)C1CC1` [Compound 37, N-((S)-1,1-dicyclopropyl-3-((4-((1S,2S)-1-(4-(cyclopropylmethyl)-4H-1,2,4-triazol-3-yl)-1-(2-methoxyacetamido)propan-2-yl)-2-fluorophenyl)amino)-3-oxopropan-2-yl)-1-ethyl-1H-pyrazole-5-carboxamide] were, in that order, 125 nM, 232 nM and 74 nM.
Taken in the same sequence, the figures for `CCn1nccc1C(=O)N[C@H](C(=O)Nc1ccc([C@H](C)[C@@H](NC(=O)COC)c2nccn2CC2CC2)cc1F)C(C1CC1)C1CC1` [Compound 38, N-((S)-1,1-dicyclopropyl-3-((4-((1R,2S)-1-(1-(cyclopropylmethyl)-1H-imidazol-2-yl)-1-(2-methoxyacetamido)propan-2-yl)-2-fluorophenyl)amino)-3-oxopropan-2-yl)-1-ethyl-1H-pyrazole-5-carboxamide] were 7.5 nM, 7 nM and 2.9 nM.
As for `CCn1nccc1C(=O)N[C@H](C(=O)Nc1ccc([C@H](C)[C@@H](NC(=O)COC)c2ncnn2CCOC)cc1F)C(C1CC1)C1CC1` [Compound 40], the IC50 on IL-17AA and IL-17RA was 7.4 nM; in assay [1], 8.6 nM; in assay [2], 2.6 nM.
Take `CCn1nccc1C(=O)N[C@H](C(=O)Nc1ccc([C@H](C)[C@@H](NC(=O)COC)c2ncnn2CC2CC2)cc1F)C1CCC(C)CC1` (stereo partly drawn) [Compound 41, N-((S)-2-((4-((1R,2S)-1-(1-(cyclopropylmethyl)-1H-1,2,4-triazol-5-yl)-1-(2-methoxyacetamido)propan-2-yl)-2-fluorophenyl)amino)-1-((1R,4S)-4-methylcyclohexyl)-2-oxoethyl)-1-ethyl-1H-pyrazole-5-carboxamide]: the IC50 was 4.9 nM on IL-17AA and IL-17RA; 16 nM in assay [1]; 11 nM in assay [2].
`CCn1nccc1C(=O)N[C@H](C(=O)Nc1ccc([C@H](C)[C@@H](NC(=O)COC)c2ncnn2CC2CC2)cc1F)C1CCCCCC1` [Compound 42, N-((S)-1-cycloheptyl-2-((4-((1R,2S)-1-(1-(cyclopropylmethyl)-1H-1,2,4-triazol-5-yl)-1-(2-methoxyacetamido)propan-2-yl)-2-fluorophenyl)amino)-2-oxoethyl)-1-ethyl-1H-pyrazole-5-carboxamide]: the IC50 on IL-17AA and IL-17RA came to 4.9 nM; in assay [1] it was 11 nM; in assay [2], 5.1 nM.
Consider `[2H]C([2H])([2H])n1nccc1C(=O)N[C@H](C(=O)Nc1ccc([C@H](C)[C@@H](NC(=O)CC)c2ncn(CC3CC3)n2)cc1F)C(C1CC1)C1CC1` [Compound 43, N-((S)-1,1-dicyclopropyl-3-((4-((1R,2S)-1-(1-(cyclopropylmethyl)-1H-1,2,4-triazol-3-yl)-1-propionamidopropan-2-yl)-2-fluorophenyl)amino)-3-oxopropan-2-yl)-1-(methyl-d3)-1H-pyrazole-5-carboxamide], for which the IC50 was determined as 9.4 nM at IL-17AA and IL-17RA; 27 nM in assay [1]; 16 nM in assay [2].
With `CCC(=O)N[C@@H](c1ncnn1CC1CC1)[C@@H](C)c1ccc(NC(=O)[C@@H](NC(=O)c2ccnn2C(C)C)C(C2CC2)C2CC2)c(F)c1` [Compound 44, N-((S)-1,1-dicyclopropyl-3-((4-((1R,2S)-1-(1-(cyclopropylmethyl)-1H-1,2,4-triazol-5-yl)-1-propionamidopropan-2-yl)-2-fluorophenyl)amino)-3-oxopropan-2-yl)-1-isopropyl-1H-pyrazole-5-carboxamide], the IC50 on IL-17AA and IL-17RA came to 1.9 nM; in assay [1] it was 29 nM; in assay [2] it was 4.4 nM.
Take `CCn1nccc1C(=O)N[C@H](C(=O)Nc1ccc([C@H](C)[C@@H](NC(=O)COC)c2ncnn2CC2CC2)cc1OC)C(C1CC1)C1CC1` [Compound 45, N-((S)-1,1-dicyclopropyl-3-((4-((1R,2S)-1-(1-(cyclopropylmethyl)-1H-1,2,4-triazol-5-yl)-1-(2-methoxyacetamido)propan-2-yl)-2-methoxyphenyl)amino)-3-oxopropan-2-yl)-1-ethyl-1H-pyrazole-5-carboxamide]: the IC50 is 153 nM on IL-17AA and IL-17RA; 1210 nM in assay [1]; 194 nM in assay [2].
Consider `CCn1nccc1C(=O)N[C@H](C(=O)Nc1ncc([C@H](C)[C@@H](NC(=O)COC)c2ncnn2CC2CC2)cc1F)C(C1CC1)C1CC1` [Compound 46, N-((S)-1,1-dicyclopropyl-3-((5-((1R,2S)-1-(1-(cyclopropylmethyl)-1H-1,2,4-triazol-5-yl)-1-(2-methoxyacetamido)propan-2-yl)-3-fluoropyridin-2-yl)amino)-3-oxopropan-2-yl)-1-ethyl-1H-pyrazole-5-carboxamide], for which the IC50 at IL-17AA and IL-17RA came out at 29 nM; in assay [1], 159 nM; in assay [2], 124 nM.
Regarding `CCn1nccc1C(=O)N[C@H](C(=O)Nc1ccc([C@H](C)[C@@H](NC(=O)COC)c2ncnn2CC2CC2)cn1)C(C1CC1)C1CC1` [Compound 48, N-((S)-1,1-dicyclopropyl-3-((5-((1R,2S)-1-(1-(cyclopropylmethyl)-1H-1,2,4-triazol-5-yl)-1-(2-methoxyacetamido)propan-2-yl)pyridin-2-yl)amino)-3-oxopropan-2-yl)-1-ethyl-1H-pyrazole-5-carboxamide], the IC50 at IL-17AA and IL-17RA amounted to 41 nM; in assay [1], 202 nM; in assay [2], 13 nM.
Regarding `CCn1nccc1C(=O)N[C@H](C(=O)Nc1ccc([C@H](C)[C@@H](NC(=O)CO)c2ncnn2CC2CC2)cc1F)C(C1CC1)C1CC1` [Compound 49, N-((S)-1,1-dicyclopropyl-3-((4-((1R,2S)-1-(1-(cyclopropylmethyl)-1H-1,2,4-triazol-5-yl)-1-(2-hydroxyacetamido)propan-2-yl)-2-fluorophenyl)amino)-3-oxopropan-2-yl)-1-ethyl-1H-pyrazole-5-carboxamide], the IC50 was 28 nM at IL-17AA and IL-17RA; 87 nM in assay [1]; 93 nM in assay [2].
Turning to `CCn1ncnc1C(=O)N[C@H](C(=O)Nc1ccc([C@H](C)[C@@H](NC(=O)COC)c2ncnn2CC2CC2)cc1F)C(C1CC1)C1CC1` [Compound 50, N-((S)-1,1-dicyclopropyl-3-((4-((1R,2S)-1-(1-(cyclopropylmethyl)-1H-1,2,4-triazol-5-yl)-1-(2-methoxyacetamido)propan-2-yl)-2-fluorophenyl)amino)-3-oxopropan-2-yl)-1-ethyl-1H-1,2,4-triazole-5-carboxamide], the IC50 on IL-17AA and IL-17RA was 5.6 nM; in assay [1], 26 nM; in assay [2], 7.9 nM.
